Data set [1] concerns A549 cells. Put plainly: CCK-8 cell proliferation and cytotoxicity analysis of A549 cells. The data set is classed as cell-based. As to conditions: 72 h. The text has this: A CCK-8 kit was used to detect cell proliferation and cytotoxicity. Its working principle is as follows: In the presence of an electron coupling reagent, WST-8 (chemical name: 2-(2-methoxy-4-nitrophenyl)-3-(4-nitrophenyl)-5-(2,4-disulfophenyl)-2H-tetrazolium monosodium salt) can be reduced by mitochondrial dehydrogenases to produce a highly water-soluble orange-yellow formazan product. The intensity of the color is proportional to cell proliferation and inversely proportional to cytotoxicity. […] The OD value measured at a wavelength of 450 nm via a microplate reader can indirectly reflect the number of viable cells.
The CCK-8 assay was used to detect the viability of A549 cells after treatment with different concentrations of BLM and GlyT1 inhibitor for 72 h. […] In this example, BLM, which maintained the viability of A549 cells at approximately 80%, was selected for stimulation, and A549 cells were stimulated with 25 μM BLM to establish the cell model. […] At a concentration of 380 nM, the viability of A549 cells was greater than 50%. To obtain stable experimental results more easily, 190 nM GLYT1 IN was selected as the treatment concentration in subsequent studies.

The test system of data set [2] is A549 cells. Put plainly: Western blot of pulmonary fibrosis-related indicators in the in vitro bleomycin-induced pulmonary fibrosis model. The data set is classed as cell-based. To be noted: 25 μM BLM + 190 nM GLYT1 IN for 72 h; compared with BLM group. The protocol:
A bleomycin-induced pulmonary fibrosis model was established in vitro, with simultaneous intervention via a GLYT1 inhibitor.
For the in vitro bleomycin-induced pulmonary fibrosis model, A549 cells were divided into […] treatment groups: the NC group (control group: treated with normal saline), the BLM group (bleomycin-treated group: treated with 25 μM BLM for 72 h), and the BLM+GLYT1 IN group (bleomycin and glycine transporter 1 inhibitor-treated group: treated with 25 μM BLM for 72 h and 190 nM GLYT1 IN for 72 h).
Western blotting was used to detect the expression levels of pulmonary fibrosis-related indicators: collagen type I alpha 1 (col1α1), collagen type III alpha 1 (col3α1), collagen type IV alpha 1 (col4α1), E-cadherin (E-Cad), and α-SMA proteins.
In general terms: In western blotting, separated proteins are transferred to a membrane and probed.

Data set [3] relates to bleomycin-induced pulmonary fibrosis. Description: Bleomycin-induced pulmonary fibrosis in mice. To be noted: for collagen deposition in lung tissue (Masson staining): 1 mg/kg and 5 mg/kg BLM; for body weight: inhibitor 0.79 mg/kg per day by gavage for 14 days from day 14 after modeling. In kind it is in vivo, C57BL/6J male mice. The method, then:
The dosage was 0.79 mg/kg per day, and the administration route was intragastric gavage. When used, the drug was dissolved in H2O containing 0.3% Tween 80.
C57BL/6J male mice (8-10 weeks old, weighing 24-25 g) were purchased from Beijing Huafukang Biotechnology Co., Ltd. The mice were housed in a specific pathogen-free (SPF) environment, with the room temperature maintained at 20-25° C. and the humidity controlled at 50-60%. The mice were fed normally, and the light was adjusted to a 12 h light/dark cycle. Before modeling, the mice were acclimatized to the corresponding environment for 1 week. All animal experiments were conducted in compliance with the animal care regulations and guidelines of Tianjin Medical University and were approved by the Animal Committee of Tianjin Medical University.
1. Prediluted bleomycin was prepared, and doses of 1 mg/kg and 5 mg/kg were administered on the basis of the body weights of the mice.
7. The mouse's tongue was gently pulled to one side toward the mandible with sterile padded forceps to expose the vocal cords; then, the pipette tip loaded with bleomycin was lowered to the back of the oral cavity, and the liquid was delivered through the vocal cords during inhalation. The sounds of wheezing were waited to confirm that the liquid was delivered into the trachea. For animals in the control group, an equal volume of sterile PBS was used instead of the bleomycin solution.
10. The mice were monitored daily until they were euthanized for analysis. RG1678 or water containing 0.3% Tween 80 was added to the mice by gavage every day according to their groupings.
11. When the experiment reached the appropriate time point, the mice were euthanized, their eyeballs were removed for blood collection, and then the mice were dissected to collect samples.
Mice in different groups were generated according to the abovementioned methods. The mice in the control group were given normal saline, while the mice in the experimental groups were given bleomycin at different concentrations. Fourteen days after modeling, the mice were intragastrically administered either ddH2O containing 0.3% Tween 80 or RG1678 prepared in ddH2O containing 0.3% Tween 80 via continuous gavage for 14 days; the specific experimental conditions are shown in Table 1.
1. Bleomycin stock solution (10 mg/mL): First, 10 mg of bleomycin was weighed and dissolved in 1 mL of 0.9% sodium chloride. The instillation volume for each mouse was calculated on the basis of its body weight, with the instillation volume per mouse being approximately 50 μL. The stock solution was diluted to 0.5 mg/mL and 2.5 mg/mL for subsequent instillation according to the different groups (1 mg/kg and 5 mg/kg).
3. RG1678 (0.79 mg/mL): An appropriate amount of RG1678 was dissolved in ddH2O containing 0.3% Tween 80 to prepare a stock working solution of 0.79 mg/mL. The intragastric administration volume was then calculated on the basis of the mouse's body weight, with approximately 200 μL per mouse. Before use, the stock solution was diluted to a working concentration of […].
The body weights of the mice were measured before modeling, and their body weights were monitored daily during the experiment to observe changes. A comparison was made between the body weight at the end of the experiment and that at the beginning.
To further observe lung tissue damage in mice in detail, pathological detection was performed on the mouse lung tissues in this example.
Masson staining was performed on mouse lung tissue sections. Masson staining is an experimental method used to detect the secretion and deposition levels of collagen fibers in tissues. After treatment with different staining solutions, the overall background of the tissue section appeared red, the cell nuclei were black, and the collagen fibers were blue. The content of collagen fibers can be evaluated on the basis of the depth of the blue color and the scope of its distribution. […]

[4] abbreviates: intervention initiated 14 days after BLM modeling, lung paraffin sections.
Where [5] appears, read: treatment for 14 days from day 14 after modeling, compared with BLM group.

With `C[C@H](Oc1ccc(S(C)(=O)=O)cc1C(=O)N1CCN(c2ncc(C(F)(F)F)cc2F)CC1)C(F)(F)F` [RG1678], in the data set with A549 cells [1] (human, 380 nM), the “viability of A549 cells” value was “greater than 50%”. In addition, in the data set with A549 cells [2], the “E-cadherin protein expression level” value was “significantly increased”, the “col1α1 protein expression level” value is “significantly decreased”, the “col3α1 protein expression level” value is “significantly decreased” and the “col4α1 protein expression level” value was “significantly decreased”. Besides, the “α-SMA protein expression level” value with A549 cells [2] is on record as “significantly decreased”. Moreover, the “collagen deposition in lung tissue (Masson staining)” value in data set [3] (compared with BLM group, listed as GLYT1 IN) is recorded as “not obvious”. In data set [3] (compared with BLM group, listed as GlyT1 inhibitor 1), the “collagen deposition in lung tissue (Masson staining)” value is listed as “significantly reduce”. Further, the body weight entry in data set [3] (BLM 1 or 5 mg/kg, compared with BLM group) is on record as “less pronounced decrease”. Besides, the body weight entry in data set [3] (BLM 1 or 5 mg/kg, compared with BLM group, listed as GLYT1 IN) was “significantly greater”. Moreover, in data set [3] (BLM 1 or 5 mg/kg, inhibitor by gavage for 14 days from day 14 after modeling, compared with BLM group (**P<0.01, ***P<0.001)), the “change in lung weight/body weight ratio” value is reported as “significantly alleviated”. In data set [3] (BLM+RG1678 group compared with BLM group), the “general condition changes after modeling (delayed responses, huddling, trembling, cyanosis, decreased food intake, wrinkled skin)” value was “milder degrees”. For the same compound, in data set [3] (setting [4]), the “BLM-induced lung tissue consolidation (HE staining)” value was “reduced” and the “degree of fibrosis (HE staining)” value is “significantly alleviated”. Moreover, the “collagen deposition in lung tissue (Sirius Red staining)” value in data set [3] (intervention initiated 14 days after modeling, compared with BLM stimulation) was “significantly reduced”. Also, in data set [3] (setting [5]), the “deposition of type I collagen in lung tissue (immunohistochemistry)” value is reported as “significantly lower” and the “deposition of type III collagen in lung tissue (immunohistochemistry)” value is reported as “significantly lower”.

As to bleomycin, the “viability of A549 cells” value was “significantly affected” with A549 cells [1] (10 μM bleomycin) and “approximately 80%” with A549 cells [1] (25 μM BLM). In addition, in the data set on A549 cells [1] (increasing concentrations), the “viability of A549 cells with increasing concentrations” value is given as “decreased”.
